Data: patent US20260248820A1, “USES OF HYDROGENATED CANNABIDIOL (H4CBD) AND ADVANCED METABOLIC SYNDROME” (The Regents of the University of California, priority 2022, published 2026)
Entries after “also recorded” stand apart in the source; their conditions may differ.

Legend:
[1] = system: Otsuka Long-Evans Tokushima Fatty (OLETF) rat; experiment: Morphometrical measurements (body mass, abdominal fat, food and water intake, activity) in advanced MetS rats; format: in vivo
Text: Animals—The Otsuka Long-Evans Tokushima Fatty (OLETF) rat is a monogenic model of diet-induced obesity accelerated by a mutation in the CCK receptor. […] At >40 weeks of age, OLETF rats suffer from severe metabolic dysfunction and therefore serve as a model of aged, severe MetS.
(§1) Male lean Long Evan's Tokushima Otsuka (LETO) rats and obese Otsuka Long Evans Tokushima Fatty (OLETF) rats (Japan SLC Inc., Hamamatsu, Japan), both 14 weeks of age were assigned to the following groups (n=8/group): (1) vehicle-dosed LETO (LETO), (2) vehicle-dosed OLETF (OLETF), and (3) H4CBD-treated (200 mg/kg/day×4 weeks) OLETF (H4CBD). Rats were maintained in a specific pathogen-free, climate-controlled facility on a 12-hour light: dark cycle (07:00-19:00 and 19:00-07:00, respectively). All animals had free access to water and were fed rat chow (Teklad Global; fat 9.0%; carbohydrate 44.9%; protein 19.0%) ad libitum. Treatment intervention was initiated at 41 weeks of age. Phenotypic data (i.e. body mass, food intake) was collected daily for all animals.
Purified H4CBD (>99%) was suspended in food grade sesame oil and administered by oral gavage at a dose of 200 mg/kg.
Tissue Collection—After the 4-week study and 3 days following the OGTT, animals were fasted overnight and tissues were collected the following morning.
as §1, with “Animals—Male” for “Male”, “facility at the University of California, Merced” for “facility”, “age.” for “age. Phenotypic data (i.e. body mass, food intake) was collected daily for all animals.”
Body Mass (BM), Water, and Food Intake—BM was measured daily to calculate the appropriate drug and vehicle dose. Water, urine and food were measured once every 24 hours throughout the study.
(§2) Telemeter Implantation—At 16 weeks, OLETF rats (n=5) were implanted with DSI telemeters (HD-S10) in the abdominal cavity to measure systolic blood pressure. […] Activity was measured every hour for 15 minutes for the duration of the study. Data were analyzed using A.R.T. software (DSI, St. Paul, MN).
Drug Preparation and Administration—Purified H4CBD (>99%) was suspended in sesame oil and administered by oral gavage at a dose of 200 mg/kg.
Tissue Collection—After the 4-week study period, animals were fasted overnight, and tissues were collected at sacrifice the following morning. BM was recorded before animals were decapitated and trunk blood was collected.

[2] = system: proteins involved in fatty acid uptake, metabolism and storage (liver); experiment: Western blot of liver proteins involved in fatty acid uptake, metabolism and storage; format: in vivo, rat
Text: Western Blot—Liver was used to measure proteins involved in fatty acid uptake, metabolism and storage. Densitometry values were quantified using ImageJ software (NIH) and normalized by correcting for densitometry values of representative protein bands below 37 kDa stained with Ponceau S. Results are reported as expression (%) compared to LETO.

[3] = system: Otsuka Long-Evans Tokushima Fatty (OLETF) rat; experiment: Systolic blood pressure by DSI radiotelemetry; format: in vivo; conditions: for Average increase of systolic blood pressure versus non-treated OLETF: after the 7th day of the dose regimen
Protocol: as §2

[4] = system: Mas1 mRNA; experiment: Real-time qPCR on cardiac tissue, Mas1; format: in vivo, rat; conditions: 74% lower in OLETF control than LETO
Text: Real-Time qPCR—Gene expression was quantified by qPCR on cardiac tissue. Primers used were acquired from Integrated DNA Technologies and listed here 5′-3′: angiotensin MAS1 receptor (Mas1) Fw: […] (SEQ ID NO:1), Rv: […] (SEQ ID NO:2).

[5] = system: endocannabinoid receptors; conditions: cited from earlier work
[6] = OLETF rats, 200 mg/kg oral, 4 weeks, p<0.05
[7] = average between day 10 and day 30
[8] = by day 13 through the end of the study

For `CCCCCc1cc(O)c(C2CC(C)CCC2C(C)C)c(O)c1` (stereo not drawn) [H4CBD, 2-(2-isopropyl-5-methylcyclohexyl)-5-pentylbenzene-1,3-diol], the “Activity score relative to OLETF control” value ([1]; DSI HD-S10 telemeter, H4CBD n=3, OLETF n=2, p=0.0985, not significant) was “nearly doubled”, the “Body mass (g)” value ([1]; H4CBD-treated OLETF rats, 200 mg/kg oral gavage, 4 weeks, mean ± SEM, n = 8) was 516 ± 21^^# g and the “Final, absolute food intake” value ([1]; H4CBD-treated OLETF rats, 200 mg/kg oral, 4 weeks, average of 3 days, mean ± SEM) was 36 ± 2 g. The “Relative total fat (g/100 g BM)” value ([1]; H4CBD-treated OLETF rats, 200 mg/kg oral, 4 weeks, epi.+retro., mean ± SEM) was 7.8 ± 1.1 g/100 g BM, the “Relative epi. fat (g/100 g BM)” value ([1]; H4CBD-treated OLETF rats, 200 mg/kg oral, 4 weeks, epidydimal, mean ± SEM) was 1.2 ± 0.1^^# g/100 g BM and the “Relative final food intake (g/100 g BM)” value ([1]; H4CBD-treated OLETF rats, 200 mg/kg oral, 4 weeks, mean ± SEM) was 6.7 ± 0.4 g/100 g BM. The “Relative retro. fat (g/100 g BM)” value ([1]; H4CBD-treated OLETF rats, 200 mg/kg oral, 4 weeks, retroperitoneal, mean ± SEM) was 6.6 ± 0.9 g/100 g BM, the “Initial, absolute food inake” value ([1]; H4CBD-treated OLETF rats, average of 3 days, mean ± SEM) was 34 ± 2 g and the “Reduction of relative combined (total) adipose compared to OLETF” value ([1]; OLETF rats, 200 mg/kg oral, 4 weeks) was 25%. For the same molecule, the “Change in food consumption compared to OLETF” value ([1]; OLETF rats, 200 mg/kg oral, 4 weeks (Table 1)) was “not associated with a change in food consumption”, the “Effect on body mass (BM)” value ([1]; OLETF rats, 200 mg/kg oral, 4 weeks, compared with vehicle LETO, 200 mg/kg) was “reduced BM in OLETF to LETO levels within the first week; also recorded: reduced BM to vehicle-treated LETO levels” and the “Reduction of relative epidydimal fat compared to OLETF control” value [1, 6] was 35%. The “Reduction of relative retroperitoneal fat compared to OLETF control” value [1, 6] was 24%, the “BM of vehicle-treated OLETF higher than H4CBD-treated OLETF” value ([1]; OLETF rats, 200 mg/kg oral, after first week (day 10-30), p<0.05) was 15% and the “Increased relative food consumption compared to OLETF control” value [1, 7] was 24%. For the same molecule, the “Increased relative food intake consumption compared to LETO” value [1, 7] was 74%, the “Water intake higher than LETO” value [1, 8] was greater than 600% and the “Water intake higher than OLETF control” value [1, 8] was 90%. For the same molecule, the “Downstream signaling proteins GPAM, DGAT1, CPTIA, ACOX1, ApoB and PRDX6” value ([2]; data not shown) was “comparable between groups”, the FATP5 expression ([2]; increased 109% in OLETF vs LETO) was “not effected” and the “Increase of FATP2 expression” value ([2]; p<0.05) was 60%. For the same molecule, the “Rescue (increase) of CD36 expression” value ([2]; p<0.05) was 48%, the “Systolic blood pressure, treated vs non-treated OLETF” value ([3]; 4 weeks telemetry) was “No significant difference; also recorded: did not reduce SBP” and the “Average increase of systolic blood pressure versus non-treated OLETF” value [3] was 4%. For the same molecule, the “Average increase of systolic blood pressure versus non-treated OLETF” value ([3]; H4CBD n=3, OLETF n=2) was 6.5 mmHg, the “Mas1 mRNA expression” value [4] was “not rescued” and the “Affinity for the endocannabinoid receptors responsible for cannabis intoxication” value [5] was “little affinity”.
